Where two headings read alike, the source gives them in different places.
What was measured:
[1] = background statement, relative to Irgacure 369 where stated; cited from earlier work
[2] = Viscosity variation test, 0° C. atmosphere for 7 days; assay type: physicochemical; details: for Viscosity, Mixture I, 7 days / Viscosity, Mixture I, Initial: 4 parts by weight photoinitiator in Mixture I; for Viscosity, Mixture I, 7 days / Viscosity, Mixture II, 7 days / Viscosity, Mixture III, 7 days: after 7 days in 0° C. atmosphere; for Viscosity, Mixture I, Initial / Viscosity, Mixture II, Initial / Viscosity, Mixture III, Initial: before exposure; for Viscosity, Mixture II, 7 days / Viscosity, Mixture II, Initial: 4 parts by weight photoinitiator in Mixture II; for Viscosity, Mixture III, 7 days / Viscosity, Mixture III, Initial: 4 parts by weight photoinitiator in Mixture III
[3] = Photo speed performance test; details: 6 parts by weight photoinitiator + 2 parts Chivacure DETX in 100 parts black flexo formulation; wet film 25.15 μm; Fusion F300 D-bulb 300 W/inch
Source text: The black flexo formulation containing Oligomer 6325-100, EM2411 and carbon black (viscosity: 1750 cP) was mixed with a photoinitiator to carry out the photo speed performance test. […] The resultant mixture was coated on a printable pearlescent film (wet film thickness: 25.15 μm); and the coated printable pearlescent film was exposed to an UV light (Fusion F300, D-bulb, 300 W/inch) for curing.

[4] = Photoinitiator dosage test (curing performance); design: key to Curing performance, 1 time of UV light treatment / Curing performance, 2 times of UV light treatment / Curing performance, 3 times of UV light treatment / Curing performance, 4 times of UV light treatment: X: Not tack-free; Δ: Tack-free but not through-cure; ◯: Tack-free and through-cure; details: for Curing performance, 1 time of UV light treatment / Curing performance, 2 times of UV light treatment / Curing performance, 3 times of UV light treatment / Curing performance, 4 times of UV light treatment: 365 nm, 4 W/inch
Protocol: The commercially available black flexo ink without a photoinitiator was mixed with a photoinitiator to carry out the photo speed performance test, and the effect of the amount of photo initiating compound Ia on the photo speed performance was evaluated. […] The resultant mixture was coated on a PET film with primer (means for improving adhesion) (dry film thickness: 5 μm). The coated PET film was exposed to an UV light (wavelength: 365 nm; 4 W/inch) for curing.

[5] = Solubility test: dissolution in acrylate mixtures I to III; assay type: physicochemical; details: one-hour ultrasonication at room temperature
Protocol: Mixtures I to III were prepared according to the composition provided below, and then 6 parts by weight of photoinitiator Trgacure® 369 (available from IGM), photoinitiator R-gen® 919 (available from Chitec Technology Co., Ltd.) or photo initiating compound Ia was added to each of the mixtures I to III.

[6] = Acute oral toxicity test (LD50), OECD Test Guidelines 423; assay type: in vivo; details: for LD50: acute oral, OECD 423; for Acute oral toxicity assessment: judged from LD50 exceeding 5000 mg/kg
[7] = background statement; cited from earlier work
[8] = in UV inks; background statement; cited from earlier work
[9] = background statement; cited from earlier work; remark: listed apart in the source
[10] = 4 parts by weight photoinitiator
[11] = 8 parts by weight photoinitiator

C=CCC(C(=O)c1ccccc1)(c1ccccc1)N(C)C (stereo not drawn) [compound 100]
Photo speed [1]: poor photospeeds

CCC1(C)OCCN1c1ccc(C(=O)C(CC)(Cc2ccccc2)N(C)C)cc1 (stereo not drawn) [Photo initiating compound Ia]
Precipitate after exposure to 0° C. atmosphere for 7 days ([2]; 4 parts by weight in mixtures I to III): no precipitate was observed | Viscosity, Mixture I, 7 days [2]: 51.2 cP | Viscosity, Mixture I, Initial [2]: 41.6 cP | Viscosity, Mixture II, 7 days [2]: 406.7 cP | Viscosity, Mixture II, Initial [2]: 351.3 cP | Viscosity, Mixture III, 7 days [2]: 547.8 cP | Viscosity, Mixture III, Initial [2]: 433.1 cP | Photo speed [3]: 120 m/minute | Curing performance, 1 time of UV light treatment [4, 10]: X | Curing performance, 2 times of UV light treatment [4, 10]: X | Curing performance, 3 times of UV light treatment [4, 10]: X | Curing performance, 4 times of UV light treatment [4, 10]: Δ | Curing performance, 1 time of UV light treatment [4, 11]: Δ | Solubility in black flexo ink ([4]; amount increased up to 12 parts by weight): no solubility issue was observed | Dissolution, Mixture I ([5]; 6 parts by weight photoinitiator in Mixture I): Completely | Dissolution, Mixture II ([5]; 6 parts by weight photoinitiator in Mixture II): Completely | Dissolution, Mixture III ([5]; 6 parts by weight photoinitiator in Mixture III): Completely | LD50 [6]: >5000 mg/kg | LD50 ([6]; in vivo, read-out: LD50): > 5000 mg/kg | Acute oral toxicity assessment [6]: no acute oral toxicity

CN(C)C(C)(C(=O)c1ccccc1)c1ccccc1 (stereo not drawn) [compound 96]
Photo speed [1]: poor photospeeds

C=CCC(C)(C(=O)c1ccccc1)N1CCOCC1 (stereo not drawn) [compound 93]
Photo speed [1]: poor photospeeds

CCCCCCNc1ccc(C(=O)C(CC)(Cc2ccccc2)N(C)C)cc1 (stereo not drawn) [compound I]
Photo speed [1]: comparable to that of Irgacure® 369

CCC(Cc1ccccc1)(C(=O)c1ccc(N2CCOCC2)cc1)N(C)C (stereo not drawn) [Irgacure® 369]
Viscosity, Mixture I, 7 days [2]: 60.4 cP | Viscosity, Mixture I, Initial [2]: 52.7 cP | Viscosity, Mixture II, 7 days [2]: Precipitate | Viscosity, Mixture II, Initial [2]: 385.0 cP | Viscosity, Mixture III, 7 days [2]: Precipitate | Viscosity, Mixture III, Initial [2]: 487.0 cP | Photo speed [3]: 120 m/minute | Reproductive toxicity [7]: reproductive toxicity | Curing performance, 1 time of UV light treatment [4, 10]: X | Curing performance, 2 times of UV light treatment [4, 10]: X | Curing performance, 3 times of UV light treatment [4, 10]: X | Curing performance, 4 times of UV light treatment [4, 10]: Δ | Dissolution in black flexo ink [4, 11]: Incomplete dissolution | LD50 [6]: >5000 mg/kg | LD50 ([6]; in vivo, read-out: LD50): > 5000 mg/kg | Acute oral toxicity assessment [6]: no acute oral toxicity | Dosage above which prone to precipitate [8]: over 4 wt %

C=CCC(C)(C(=O)c1ccccc1)N(C)C (stereo not drawn) [compound 95]
Photo speed [1]: poor photospeeds

CCC(Cc1ccc(C)cc1)(C(=O)c1ccc(N2CCOCC2)cc1)N(C)C (stereo not drawn) [Irgacure® 379]
Reproductive toxicity [7]: reproductive toxicity

CCC(Cc1ccccc1)(C(=O)c1ccc(N(C)CCOC(C)=O)cc1)N(C)C (stereo not drawn) [compound IIa]
Acute oral toxicity [9]: high acute oral toxicity | Photo speed [1]: comparable to Irgacure® 369
